Experimental data: patent US8700113B2, “Sensor for detection of carbohydrate” (Medtronic Minimed, Inc., priority 2004, dated 2014)

Key:
[1] = target: T1, MBL (Homo sapiens, UniProt P11226); test: Affinity of common carbohydrate moieties for MBL; format: binding; settings: for affinity for MBL, rank order of common carbohydrate moieties: value = moieties ranked next below (>) or above (<)
[2] = Comparison of stability of MBL and Con A in glucose assay
Procedure: Example 5 was repeated using MBL-AF594 and ConA-AF594 as lectin with 110 kDa HMCV1-dextran as analyte analogue in physiological TRIS buffer (pH 7.4, sodium, potassium and calcium present in physiological concentrations). […] Measurements were taken at 5 minute intervals using a miniaturized time resolved fluorimeter.

[3] = target: T1, MBL; settings: cited from earlier work

T1 sequence (P11226 21-248, species assumed): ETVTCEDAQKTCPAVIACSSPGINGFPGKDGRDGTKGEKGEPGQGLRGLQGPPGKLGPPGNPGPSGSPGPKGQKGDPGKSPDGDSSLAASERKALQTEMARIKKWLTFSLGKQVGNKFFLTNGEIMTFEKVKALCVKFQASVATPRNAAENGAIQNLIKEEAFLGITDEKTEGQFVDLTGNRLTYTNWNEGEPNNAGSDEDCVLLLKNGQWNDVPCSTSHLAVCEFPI

affinity for MBL, rank order of common carbohydrate moieties [1]	Compound	also measured
> D-lyxose	O=C[C@H](O)[C@H](O)[C@H](O)CO [D-ribose]	
> D-lyxose	O=C(CO)[C@@H](O)[C@@H](O)[C@H](O)CO [D-tagatose]	
> D-lyxose	D-turanose	
> D-lyxose	O=C[C@@H](O)[C@H](O)[C@H](O)CO [D-arabinose]	
> D-lyxose	OC[C@@H](O)[C@@H](O)[C@H](O)[C@@H](O)CO [D-sorbitol]	
	Concanavalin A	reduction in the measured phase ([2]; after 20 days, 110 kDa HMCV1-dextran, physiological TRIS buffer pH 7.4): more than 10%; time stable at body temperature ([2]; assay conditions, body temperature): less than 20 days
D-lyxose	OC[C@H]1O[C@@H](O[C@H]2[C@H](O)[C@@H](O)C(O)O[C@@H]2CO)[C@H](O)[C@@H](O)[C@H]1O (stereo partly shown) [lactose]	
> lactose, L-arabinose, D-galactose	O=C[C@@H](O)[C@@H](O)[C@H](O)CO [D-lyxose]	
> D-lyxose	O=C[C@H](O)[C@@H](O)[C@H](O)[C@H](O)CO [D-glucose]	affinity / binding to MBL in words [1]: high affinity
	SFGSGFGGGY [keratin peptide, peptide which mimics N-acetyl glucosamine]	inhibition of MBL [3]: can inhibit MBL
	MBL-AF594: human MBL stained with Alexa Fluor 594 succinimidyl ester, 2.3 dyes per subunit	phase measurements at each glucose level over time ([2]; 110 kDa HMCV1-dextran, physiological TRIS buffer pH 7.4, glucose cycles 2.5-50 mM): constant over time
D-lyxose	O=C[C@H](O)[C@@H](O)[C@@H](O)CO [L-arabinose]	
	MBL: collagen-like C-type collectin, human MBL	time stable in a glucose assay ([2]; glucose assay): at least 17 days
> D-lyxose	OC[C@H]1O[C@H](OC[C@H]2OC(O)(CO)[C@@H](O)[C@@H]2O)[C@H](O)[C@@H](O)[C@@H]1O (stereo partly drawn) [D-palatinose]	
> D-lyxose	O[C@H]1[C@H](O)[C@@H](O)[C@H](O)[C@@H](O)[C@H]1O [myo-inositol]	
D-lyxose	O=C[C@H](O)[C@@H](O)[C@@H](O)[C@H](O)CO [D-galactose]	affinity / binding to MBL in words [1]: very low affinity

Compound	affinity for MBL, rank order of common carbohydrate moieties [1]	also measured
O=C[C@@H](O)[C@@H](O)[C@H](O)[C@H](O)CO [D-Mannose]	> myo-inositol, D-glucose, D-arabinose, D-palatinose, D-turanose, D-sorbitol, D-ribose, D-tagatose	affinity / binding to MBL in words [1]: high affinity
OC[C@H]1O[C@H](O[C@@H]2CO[C@](O)(CO)[C@@H](O)[C@@H]2O)[C@H](O)[C@@H](O)[C@@H]1O [D-leucrose]	> myo-inositol, D-glucose, D-arabinose, D-palatinose, D-turanose, D-sorbitol, D-ribose, D-tagatose	
CC(=O)N[C@@H]1C(O)O[C@H](CO)[C@@H](O)[C@@H]1O (stereo partly drawn) [N-acetyl-D-mannosamine]	> myo-inositol, D-glucose, D-arabinose, D-palatinose, D-turanose, D-sorbitol, D-ribose, D-tagatose	
C[C@H](O)[C@@H](O)[C@@H](O)[C@H](O)C=O [L-Fucose]	> myo-inositol, D-glucose, D-arabinose, D-palatinose, D-turanose, D-sorbitol, D-ribose, D-tagatose	
CC(=O)N[C@H]1C(O)O[C@H](CO)[C@@H](O)[C@@H]1O (stereo partly drawn) [N-acetyl-D-glucosamine]	> myo-inositol, D-glucose, D-arabinose, D-palatinose, D-turanose, D-sorbitol, D-ribose, D-tagatose	affinity / binding to MBL in words [1]: high affinity
O=C(CO)[C@@H](O)[C@H](O)[C@H](O)CO [D-fructose]	> myo-inositol, D-glucose, D-arabinose, D-palatinose, D-turanose, D-sorbitol, D-ribose, D-tagatose	
OC[C@H]1O[C@@](CO)(O[C@H]2O[C@H](CO)[C@@H](O[C@H]3O[C@H](CO)[C@@H](O)[C@H](O)[C@H]3O)[C@H](O)[C@H]2O)[C@@H](O)[C@@H]1O [erlose]	> myo-inositol, D-glucose, D-arabinose, D-palatinose, D-turanose, D-sorbitol, D-ribose, D-tagatose	
